Experiments:
[1] = test system: carrageenan-induced edema in rats; experiment: Antiinflammatory effect on carrageenan-induced edema; type: in vivo, Wistar male rats
Description: […] One hour after the administration of the test compounds, the hind paw was given a subcutaneous injection of 0.05ml of 0.5% carrageenan saline solution, and volume of the hind paw was measured at 1, 2, 3, 4, 5 and 6 hours after the injection of carrageenan by a volume differential meter. Inhibitory percent was calculated based on the swelling in the control. Phenybutazone was used as active placebo.

[2] = test system: mice; experiment: Muscular relaxing effect, Rotarod Method (R.R), oral, mice; type: in vivo, dd Male mice; conditions: Mus musculus; for responders at 500 mg/kg: read-out: Inhibition percent of the central muscular relaxing effect, R.R (Rotarod Method)
Description: (§1) dd Male mice weighing 18 to 22 g, one group consisting of 10 animals, were orally given the compounds (I) to (V) as indicated below suspended in 0.2% carboxymethylcellulose solution in a dose of 0.25ml/10g-body weight. Mephenesin was used as active placebo.
Mice were placed on Rotar Load (made by Natsume Seisakusho Co., Ltd.) having a diameter of 3 cm rotating at a speed of 10 rpm and falling (occurring within 3 minutes) was observed.

[3] = test system: mice; experiment: Muscular relaxing effect, Corneal Reflex Test (C.r), oral, mice; type: in vivo, dd Male mice; conditions: Mus musculus; for responders at 500 mg/kg: read-out: Inhibition percent of the central muscular relaxing effect, C.r (Corneal Reflex Test)
Description: as §1
Corneal reflex was observed by using mandolin wire for 1/4 injection syringe.

[4] = test system: mice; experiment: Muscular relaxing effect, Inclined Plane Test (I.P), oral, mice; type: in vivo, dd Male mice; conditions: Mus musculus; for responders at 500 mg/kg: read-out: Inhibition percent of the central muscular relaxing effect, I.P (Inclined Plane Test)
Description: as §1
Mice were placed on veneer inclined at an angle of 30° and on wire-netting inclined at an angle of 60° of which one division is 5 mm square, and mice sliding down were observed as positive, in comparison with normal behavior.

[5] = test system: mice; experiment: Muscular relaxing effect, Righting Reflex Test (R.r), oral, mice; type: in vivo, dd Male mice; conditions: Mus musculus; for responders at 500 mg/kg: read-out: Inhibition percent of the central muscular relaxing effect, R.r (Righting Reflex Test)
Description: as §1

[6] = test system: mice; experiment: Muscular relaxing effect, Traction Test (T.T), oral, mice; type: in vivo, dd Male mice; conditions: Mus musculus; for responders at 500 mg/kg: read-out: Inhibition percent of the central muscular relaxing effect, T.T (Traction Test)
Description: as §1

[7] = test system: mice; experiment: Muscular relaxing effect, Pinna Reflex Test (P.r), oral, mice; type: in vivo, dd Male mice; conditions: Mus musculus; for responders at 500 mg/kg: read-out: Inhibition percent of the central muscular relaxing effect, P.r (Pinna Reflex Test)
Description: as §1
Pinna reflex was observed by using mandolin wire for 1/4 injection syringe.

[8] = test system: pain threshold in mice; experiment: Analgetic effect, Pressure Test (pain threshold, tail pressure); type: in vivo, dd Male mice; conditions: 100 mg/kg oral; for Pain threshold, Mean ± SE, 30 min / Pain threshold, Mean ± SE, 60 min / Pain threshold, Mean ± SE, 90 min / Pain threshold, Mean ± SE, 120 min: *p <0.05, **p <0.01, ***p <0.001
Description: dd Male mice weighing 18 to 22 g (pain threshold ranging within 30 to 50 mmHg), one group consisting of 10 animals, were given orally the test compounds suspended in 0.2% carboxymethylcellulose solution in a dose of 100mg/kg-body weight. Pain threshold were measured at 30, 60, 90 and 120 minutes after the administration of the test compounds while pain reaction occurring by application of pressure on tails of animals was referred to as indication. Aminopyrine was used as active placebo.

[9] = Table 1, oral, mice, maximum response 15-180 min, Litchfield Wilcoxon

Row | Compound | Inhibitory per cent, carrageenan-induced edema, 1 hr ([1]; Table 6, 100 mg/kg oral) | Inhibitory per cent, carrageenan-induced edema, 2 hrs. ([1]; Table 6, 100 mg/kg oral) | Inhibitory per cent, carrageenan-induced edema, 3 hrs. ([1]; Table 6, 100 mg/kg oral) | Inhibitory per cent, carrageenan-induced edema, 4 hrs. ([1]; Table 6, 100 mg/kg oral) | Inhibitory per cent, carrageenan-induced edema, 5 hrs. ([1]; Table 6, 100 mg/kg oral) | responders at 500 mg/kg ([2]; Table 2, 500 mg/kg, oral, mice) | responders at 500 mg/kg ([3]; Table 2, 500 mg/kg, oral, mice) | responders at 500 mg/kg ([4]; Table 2, 500 mg/kg, oral, mice) | responders at 500 mg/kg ([5]; Table 2, 500 mg/kg, oral, mice) | responders at 500 mg/kg ([6]; Table 2, 500 mg/kg, oral, mice) | responders at 500 mg/kg ([7]; Table 2, 500 mg/kg, oral, mice) | further results
1 | O=C1NCC(Cc2ccccc2Oc2ccccc2)O1 (stereo not shown) [Compound XV, 5-(o-phenoxybenzyl)-2-oxazolidone] | 59.5 per cent | 57.1 per cent | 59.9 per cent | 30.8 per cent | 26.1 per cent | – | – | – | – | – | – | Inhibitory per cent, carrageenan-induced edema, 6 hrs. ([1]; Table 6, 100 mg/kg oral): 23.2 per cent
2 | Cc1ccccc1OCC(O)CO (stereo not shown) [Mephenesin, reference compound] | – | – | – | – | – | 80% | 0% | 60% | 20% | 40% | 20% | ED50 [2, 9]: 268 mg/kg; ED50 [3, 9]: 680 mg/kg; ED50 [4, 9]: 470 mg/kg; ED50 [5, 9]: 640 mg/kg; ED50 [6, 9]: 460 mg/kg; ED50 [7, 9]: 420 mg/kg
3 | C=CCOc1ccccc1CC1CNC(=O)O1 (stereo not shown) [Compound X, 5-(o-allyloxybenzyl)-2-oxazolidone] | – | – | – | – | – | 80% | 0% | 40% | 30% | 40% | 40% | –
4 | CCCCC1C(=O)N(c2ccccc2)N(c2ccccc2)C1=O [Phenylbutazone, reference compound] | 59.1 per cent | 54.6 per cent | 59.7 per cent | 68.2 per cent | 63.4 per cent | – | – | – | – | – | – | Inhibitory per cent, carrageenan-induced edema, 3 hrs. ([1]; Table 5, 200 mg/kg oral): 76.6 per cent; Inhibitory per cent, carrageenan-induced edema, 6 hrs. ([1]; Table 5, 200 mg/kg oral): 45.1 per cent; Inhibitory per cent, carrageenan-induced edema, 6 hrs. ([1]; Table 6, 100 mg/kg oral): 52.6 per cent
5 | O=C1NCC(Cc2ccccc2-c2ccccc2)O1 (stereo not shown) [Compound XIV, 5-(o-phenylbenzyl)-2-oxazolidone] | 12.9 per cent | 35.2 per cent | 40.0 per cent | 15.6 per cent | 9.1 per cent | – | – | – | – | – | – | –
6 | O=C1NCC(Cc2ccc(F)cc2)O1 (stereo not shown) [Compound XI, 5-(p-fluorobenzyl)-2-oxazolidone] | – | – | – | – | – | 100% | 0% | 80% | 10% | 90% | 60% | Inhibitory per cent, carrageenan-induced edema, 1 hr ([1]; Table 6, 200 mg/kg oral): 38.3 per cent; Inhibitory per cent, carrageenan-induced edema, 2 hrs. ([1]; Table 6, 200 mg/kg oral): 47.5 per cent; Inhibitory per cent, carrageenan-induced edema, 3 hrs. ([1]; Table 6, 200 mg/kg oral): 44.5 per cent; Inhibitory per cent, carrageenan-induced edema, 4 hrs. ([1]; Table 6, 200 mg/kg oral): 34.4 per cent; Inhibitory per cent, carrageenan-induced edema, 5 hrs. ([1]; Table 6, 200 mg/kg oral): 9.2 per cent; Inhibitory per cent, carrageenan-induced edema, 6 hrs. ([1]; Table 6, 200 mg/kg oral): 8.9 per cent
7 | O=C1NCC(Cc2ccccc2C(F)(F)F)O1 (stereo not shown) [VIII, 5-(o-trifluoromethylbenzyl)-2-oxazolidone] | – | – | – | – | – | 90% | 0% | 40% | 10% | 40% | 10% | Inhibitory per cent, carrageenan-induced edema, 1 hr ([1]; Table 6, 200 mg/kg oral): 21.7 per cent; Inhibitory per cent, carrageenan-induced edema, 2 hrs. ([1]; Table 6, 200 mg/kg oral): 49.7 per cent; Inhibitory per cent, carrageenan-induced edema, 3 hrs. ([1]; Table 6, 200 mg/kg oral): 27.4 per cent; Inhibitory per cent, carrageenan-induced edema, 4 hrs. ([1]; Table 6, 200 mg/kg oral): 35.6 per cent; Inhibitory per cent, carrageenan-induced edema, 5 hrs. ([1]; Table 6, 200 mg/kg oral): 9.2 per cent; Inhibitory per cent, carrageenan-induced edema, 6 hrs. ([1]; Table 6, 200 mg/kg oral): 0.5 per cent; Pain threshold Increase Ratio [8]: 1.28; Pain threshold, Mean ± SE, 30 min [8]: 62.0 ± 4.6 mmHg; Pain threshold, Mean ± SE, 60 min [8]: 60.2 ± 3.0 mmHg; Pain threshold, Mean ± SE, 90 min [8]: 57.5 ± 3.2 mmHg; Pain threshold, Mean ± SE, 120 min [8]: 52.9 ± 2.0 mmHg
8 | O=C1NCC(Cc2ccccc2Br)O1 (stereo not shown) [XII, 5-(o-bromobenzyl)-2-oxazolidone] | – | – | – | – | – | 100% | 0% | 80% | 0% | 60% | 20% | Pain threshold Increase Ratio [8]: 1.24; Pain threshold, Mean ± SE, 30 min [8]: 59.6 ± 3.4 mmHg; Pain threshold, Mean ± SE, 60 min [8]: 59.4 ± 3.7 mmHg; Pain threshold, Mean ± SE, 90 min [8]: 57.5 ± 1.9 mmHg; Pain threshold, Mean ± SE, 120 min [8]: 52.7 ± 2.1 mmHg
9 | O=C1NCC(Cc2ccccc2F)O1 (stereo not shown) [XIII, 5-(o-fluorobenzyl)-2-oxazolidone] | – | – | – | – | – | 90% | 10% | 50% | 20% | 70% | 0% | Pain threshold Increase Ratio [8]: 1.13; Pain threshold, Mean ± SE, 30 min [8]: 52.1 ± 3.4 mmHg; Pain threshold, Mean ± SE, 60 min [8]: 53.7 ± 2.6 mmHg; Pain threshold, Mean ± SE, 90 min [8]: 50.4 ± 2.8 mmHg; Pain threshold, Mean ± SE, 120 min [8]: 47.3 ± 1.8 mmHg
10 | CCc1ccccc1CC1CNC(=O)O1 (stereo not shown) [Compound VI, 5-(o-ethylbenzyl)-2-oxazolidone] | 27.8 per cent | 36.3 per cent | 53.6 per cent | 28.9 per cent | 22.0 per cent | 60% | 0% | 50% | 10% | 40% | 10% | Inhibitory per cent, carrageenan-induced edema, 6 hrs. ([1]; Table 6, 100 mg/kg oral): 17.4 per cent
11 | CCc1ccc(CC2CNC(=O)O2)cc1 (stereo not shown) [VII, 5-(p-ethylbenzyl)-2-oxazolidone] | – | – | – | – | – | 80% | 0% | 40% | 0% | 40% | 0% | –
12 | O=C1NCC(Cc2cccc(C(F)(F)F)c2)O1 (stereo not shown) [IX, 5-(m-trifluoromethylbenzyl)-2-oxazolidone] | – | – | – | – | – | 90% | 0% | 60% | 0% | 60% | 60% | Inhibitory per cent, carrageenan-induced edema, 1 hr ([1]; Table 6, 200 mg/kg oral): 45.0 per cent; Inhibitory per cent, carrageenan-induced edema, 2 hrs. ([1]; Table 6, 200 mg/kg oral): 49.4 per cent; Inhibitory per cent, carrageenan-induced edema, 3 hrs. ([1]; Table 6, 200 mg/kg oral): 20.8 per cent; Inhibitory per cent, carrageenan-induced edema, 4 hrs. ([1]; Table 6, 200 mg/kg oral): 11.3 per cent; Inhibitory per cent, carrageenan-induced edema, 5 hrs. ([1]; Table 6, 200 mg/kg oral): 14.5 per cent; Inhibitory per cent, carrageenan-induced edema, 6 hrs. ([1]; Table 6, 200 mg/kg oral): 11.5 per cent
13 | NC(=O)OCCCc1ccccc1 [GP, γ-phenylpropylcarbamate, reference compound] | – | – | – | – | – | – | – | – | – | – | – | responders at 500 mg/kg ([2]; po): 60%; responders at 500 mg/kg ([3]; po): 0%; responders at 500 mg/kg ([4]; po): 30%; responders at 500 mg/kg ([5]; po): 0%; responders at 500 mg/kg ([6]; po): 40%; responders at 500 mg/kg ([7]; po): 10%
